Values of other authors, collected in patent US20110008426A1, “MODIFIED RELEASE PHARMACEUTICAL COMPOSITIONS COMPRISING MYCOPHENOLATE AND PROCESSES THEREOF” (priority 2008, published 2011).
“And” between values parts separate entries of the source, which are not always exact repeats. Equal values may be shown once. Read-outs that look alike come from different tables or passages of the source.

Key:
[1] = transplant patients, acute rejection
[2] = 423 de novo kidney allograft recipients
[3] = MMF 1 g b.i.d; EC-MPS 720 mg b.i.d
[4] = not given; remark: listed apart in the source
[5] = not given; remark: listed apart in the source
[6] = controlled de novo and maintenance renal studies, patients

| Compound | incidence of GI adverse events [2] [%] | Cmax of MPA [3] [µg/mL] | Adverse Events: Anemia [4, 6] [%] | Adverse Events: Constipation [4, 6] [%] | Adverse Events: Diarrhoea [4, 6] [%] | Adverse Events: Dyspepsia [4, 6] [%] | Adverse Events: Insomnia [4, 6] [%] | Adverse Events: Leukopenia [4, 6] [%] | Adverse Events: Nausea [4, 6] [%] | Adverse Events: Urinary Tract Infection [4, 6] [%] | Adverse Events: Vomiting [4, 6] [%] | adverse effects: blood and lymphatic system disorders ([5]; www.rxlist.com) [%] | adverse effects: constipation ([5]; www.rxlist.com) [%] | adverse effects: diarrhea ([5]; www.rxlist.com) [%] | adverse effects: nausea ([5]; www.rxlist.com) [%] | adverse effects: urinary tract infections ([5]; www.rxlist.com) [%] | adverse effects: vomiting ([5]; www.rxlist.com) [%] | further results |
| --- | --- | --- | --- | --- | --- | --- | --- | --- | --- | --- | --- | --- | --- | --- | --- | --- | --- | --- |
| COc1c(C)c2c(c(O)c1C/C=C(\C)CCC(=O)O)C(=O)OC2 [mycophenolic acid, Mycophenolic acid] |  |  |  |  |  |  |  |  |  |  |  |  |  |  |  |  |  | mycophenolic acid AUC expected to yield 50% of maximal achievable efficacy [1]: 15 µg·h/mL; mycophenolic acid AUC that would yield 90% efficacy [1]: 25 µg·h/mL and 40 µg·h/mL |
| COc1c(C)c2c(c(O)c1C/C=C(\C)CCC(=O)O)C(=O)OC2 [MPS, mycophenolate sodium] | 79.8 | 18.93 | 21.9 | 39.5 | 23.5 | 19 | 23.8 | 20.5 | 27.1 | 33.3 | 23 | 41.8 | 38 | 23.5 | 29 | 29.1 | 23 | solubility of the drug (pH above 6.0): high solubility; solubility of the drug (pH below 6.0): poor solubility; Adverse Events: CMV infections ([4]; in vivo): 18.1%; adverse effects: CMV infection ([5]; in vivo): 20.2% |
| COc1c(C)c2c(c(O)c1C/C=C(\C)CCC(=O)OCCN1CCOCC1)C(=O)OC2 [MMF, mycophenolate mofetil] | 77.1 | 21.3 | 21.6 | 38.0 | 24.8 | 22.5 | 23.5 | 19.2 | 29.1 | 29.1 | 20 | 42.4 | 39.5 | 24.8 | 27.1 | 33.3 | 20 | Adverse Events: CMV infections [4, 6]: 20.2%; adverse effects: CMV infection ([5]; www.rxlist.com): 18.1% |
